Molecular target: T1, GST-RIPK1 (recombinant GST-RIPK1 kinase domain (residues 1-327)) (Homo sapiens, UniProt Q13546)
T1 construct: recombinant GST-RIPK1 kinase domain (residues 1-327) enzyme produced from baculovirus-transfected Sf21 cells; host or cells: baculovirus-transfected Sf21 insect cells
T1 sequence (Q13546 1-327): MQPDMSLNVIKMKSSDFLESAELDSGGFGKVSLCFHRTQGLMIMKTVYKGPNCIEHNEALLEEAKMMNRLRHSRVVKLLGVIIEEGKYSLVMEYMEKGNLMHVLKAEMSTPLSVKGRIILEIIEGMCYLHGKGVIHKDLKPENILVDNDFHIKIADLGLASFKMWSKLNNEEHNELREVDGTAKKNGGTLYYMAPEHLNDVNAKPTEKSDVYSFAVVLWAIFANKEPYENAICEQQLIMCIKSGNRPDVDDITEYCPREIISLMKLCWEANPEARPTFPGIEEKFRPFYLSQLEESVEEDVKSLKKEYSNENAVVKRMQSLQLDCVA
Assay: RIPK1-ADP-Glo Enzymatic Assay
Assay type: biochemical
Conditions: ten-point titration, top compound concentration of 100000 nM; 25 nM GST-RIPK1, 300 μM ATP, 3 μM dephosphorylated-MBP; 30 min pre-incubation, 150 min reaction
Procedure: RIPK1-ADP-Glo Enzymatic Assay
The enzymatic activity of RIPK1 is measured using an assay derived from ADP-Glo kit (TMPromega), which provides a luminescent-based ADP detection system. Specifically, the ADP generated by RIPK1 kinase is proportionally detected as luminescent signals in a homogenous fashion. In this context, the assessment of the inhibitory effect of small molecules (EC50) is measured by the effectiveness of the compounds to inhibit the ATP to ADP conversion by RIPK1.
In this assay, the potency (EC50) of each compound was determined from a ten-point (1:3 serial dilution; top compound concentration of 100000 nM) titration curve using the following outlined procedure. To each well of a white ProxiPlus 384 well-plate, 30 nL of compound (1% DMSO in final assay volume of 3 μL) was dispensed, followed by the addition of 2 μL of 1× assay buffer (25 mM Hepes 7.3, 20 mM MgCl2, 50 mM NaCl, 1 mM DTT, 0.005% Tween20, and 0.02% BSA) containing 37.5 nM of GST-RIPK1 (recombinant GST-RIPK1 kinase domain (residues 1-327) enzyme produced from baculovirus-transfected Sf21 cells: MW=62 kDa). Plates were placed in an ambient temperature humidified chamber for a 30 minutes pre-incubation with compound. Subsequently, each reaction was initiated by the addition of 1 μL 1× assay buffer containing 900 μM ATP and 3 μM dephosphorylated-MBP substrate. The final reaction in each well of 3 μL consists of 25 nM of GST-RIPK1, 300 μM ATP, and 3 μM dephosphorylated-MBP. Kinase reactions were allowed to proceed for 150 minutes prior to adding ADP-Glo reagents per Promega's outlined kit protocol. Dose-response curves were generated by plotting percent effect (% product conversion; Y-axis) vs. Log 10 compound concentrations (X-axis). EC50 values were calculated using a non-linear regression, four-parameters sigmoidal dose-response model.

| SMILES | EC50 [nM] |
| --- | --- |
| CC(OC1CC2(C1)OC1CCC(c3cc(F)cc(F)c3)N1C2=O)c1ccccc1 (single isomer, unassigned) [Example 15.2, ((1R or S),3R,5′S,7a′R)-5′-(3,5-difluorophenyl)-3-((S or R)-1-phenylethoxy)tetrahydro-3′H-spiro[cyclobutane-1,2′-pyrrolo[2,1-b]oxazol]-3′-one] | 70 |
| CC(OC1CC2(C1)OC1CCC(c3cc(F)cc(F)c3)N1C2=O)c1ccccc1 (single isomer, unassigned) [Example 15.3, ((1S or R),3R,5′S,7a′R)-5′-(3,5-difluorophenyl)-3-((R or S)-1-phenylethoxy)tetrahydro-3′H-spiro[cyclobutane-1,2′-pyrrolo[2,1-b]oxazol]-3′-one] | 26 |
| CC(OC1CC2(C1)OC1CCC(c3cc(F)cc(F)c3)N1C2=O)c1ccccc1 (single isomer, unassigned) [Example 15.4, ((1R or S),3R,5′S,7a′R)-5′-(3,5-difluorophenyl)-3-((R or S)-1-phenylethoxy)tetrahydro-3′H-spiro[cyclobutane-1,2′-pyrrolo[2,1-b]oxazol]-3′-one] | 19 |
| O=C1N2[C@@H](CC[C@H]2c2cc(F)cc(F)c2)OC12CC(Oc1ccccc1)C2 (single isomer, unassigned) [Example 16.1, ((1s or r),3R,5′S,7a′R)-5′-(3,5-difluorophenyl)-3-phenoxytetrahydro-3′H-spiro[cyclobutane-1,2′-pyrrolo[2,1-b]oxazol]-3′-one] | 30 |
| O=C1N2[C@@H](CC[C@H]2c2cc(F)cc(F)c2)OC12CC(Oc1ccccc1)C2 (single isomer, unassigned) [Example 16.2, ((1r or s),3R,5′S,7a′R)-5′-(3,5-difluorophenyl)-3-phenoxytetrahydro-3′H-spiro[cyclobutane-1,2′-pyrrolo[2,1-b]oxazol]-3′-one] | 29 |
| O=C1N2[C@@H](CC[C@H]2c2cncc(F)c2)OC12CCC(Oc1ccccc1)CC2 (single isomer, unassigned) [Example 16.3, (1r or s),(5′S,7a′R)-5′-(5-fluoropyridin-3-yl)-4-phenoxytetrahydro-3′H-spiro[cyclohexane-1,2′-pyrrolo[2,1-b]oxazol]-3′-one] | 62 |
| O=C1N2[C@@H](CC[C@H]2c2cncc(F)c2)OC12CCC(Oc1ccccc1)CC2 (single isomer, unassigned) [Example 16.4, (1s or r), (5′S,7a′R)-5′-(5-fluoropyridin-3-yl)-4-phenoxytetrahydro-3′H-spiro[cyclohexane-1,2′-pyrrolo[2,1-b]oxazol]-3′-one] | 476 |
| N#Cc1cc(OC2CC3(C2)O[C@@H]2CC[C@@H](c4cc(F)cc(F)c4)N2C3=O)ncc1F (single isomer, unassigned) [Example 17.1, 2-((((Is or r),3S,5′S,7a′R)-5′-(3,5-difluorophenyl)-3′-oxotetrahydro-3′H-spiro[cyclobutane-1,2′-pyrrolo[2,1-b]oxazol]-3-yl)oxy)-5-fluoroisonicotinonitrile] | 86 |
| N#Cc1cc(OC2CC3(C2)O[C@@H]2CC[C@@H](c4cc(F)cc(F)c4)N2C3=O)ncc1F (single isomer, unassigned) [Example 17.2, 2-((((1r or s),3S,5′S,7a′R)-5′-(3,5-difluorophenyl)-3′-oxotetrahydro-3′H-spiro[cyclobutane-1,2′-pyrrolo[2,1-b]oxazol]-3-yl)oxy)-5-fluoroisonicotinonitrile] | 227 |
| N#Cc1ccc(COC2CC3(C2)O[C@@H]2CC[C@@H](c4cnccn4)N2C3=O)cc1 (single isomer, unassigned) [Example 22.2, 4-((((5′S,7a′R)-3′-oxo-5′-(pyrazin-2-yl)tetrahydro-3′H-spiro[cyclobutane-1,2′-pyrrolo[2,1-b]oxazol]-3-yl)oxy)methyl)benzonitrile] | 27 |
| O=C1N2[C@@H](CC[C@H]2c2cnccn2)OC12CC(OCc1cccc(F)c1)C2 (single isomer, unassigned) [Example 22.5] | 15 |
| N#Cc1ccc(COC2CC3(C2)O[C@@H]2CC[C@@H](c4cnccn4)N2C3=O)cc1 (single isomer, unassigned) [Example 22.7, 4-({[(5′S,7a′R)-3′-oxo-5′-(pyrazin-2-yl)tetrahydro-3′H-spiro[cyclobutane-1,2′-pyrrolo[2,1-b][1,3]oxazol]-3-yl]oxy}methyl)benzonitrile] | 29 |
| O=C1N2[C@@H](CC[C@H]2c2cnccn2)OC12CC(OCc1cccc(F)c1)C2 (single isomer, unassigned) [Example 22.8] | 35 |
| O=C1N2[C@@H](CC[C@H]2c2cnccn2)OC12CC(OCC1CCC1)C2 (single isomer, unassigned) [Example 23.1, (5′S,7a′R)-3-(cyclobutylmethoxy)-5′-(pyrazin-2-yl)tetrahydro-3′H-spiro[cyclobutane-1,2′-pyrrolo[2,1-b]oxazol]-3′-one] | 460 |
| O=C1N2[C@@H](CC[C@H]2c2cnccn2)OC12CC(OCC1CCC1)C2 (single isomer, unassigned) [Example 23.2, (5′S,7a′R)-3-(cyclobutylmethoxy)-5′-(pyrazin-2-yl)tetrahydro-3′H-spiro[cyclobutane-1,2′-pyrrolo[2,1-b]oxazol]-3′-one] | 577 |
| O=C1N2[C@@H](CC[C@H]2c2cnccn2)OC12CC(OCC1CCCC1)C2 (single isomer, unassigned) [Example 23.3, (5′S,7a′R)-3-(cyclopentylmethoxy)-5′-(pyrazin-2-yl)tetrahydro-3′H-spiro[cyclobutane-1,2′-pyrrolo[2,1-b]oxazol]-3′-one] | 316 |
| O=C1N2[C@@H](CC[C@H]2c2cnccn2)OC12CC(OCC1CCCC1)C2 (single isomer, unassigned) [Example 23.4, (5′S,7a′R)-3-(cyclopentylmethoxy)-5′-(pyrazin-2-yl)tetrahydro-3′H-spiro[cyclobutane-1,2′-pyrrolo[2,1-b]oxazol]-3′-one] | 649 |
| O=C1N2[C@@H](CC[C@H]2c2ccc(F)cn2)O[C@]12C[C@@H](OCc1ccccc1)C2 [Example 3.1, (1s,3R,5′S,7a′R)-3-(benzyloxy)-5′-(5-fluoropyridin-2-yl)tetrahydro-3′H-spiro[cyclobutane-1,2′-pyrrolo[2,1-b]oxazol]-3′-one] | 108 |
| O=C1N2[C@@H](CC[C@H]2c2cnccn2)O[C@]12C[C@H](OCc1ccccc1)C2 [Example 4.1, ((1r),3R,5′S,7a′R)-3-(benzyloxy)-5′-(pyrazin-2-yl)tetrahydro-3′H-spiro[cyclobutane-1,2′-pyrrolo[2,1-b]oxazol]-3′-one] | 49 |
| O=C1N2[C@@H](CC[C@H]2c2cnccn2)OC12CC(OCc1ccccc1)C2 (stereo partly drawn) [Example 4.2, ((1s),3R,5′S,7a′R)-3-(benzyloxy)-5′-(pyrazin-2-yl)tetrahydro-3′H-spiro[cyclobutane-1,2′-pyrrolo[2,1-b]oxazol]-3′-one] | 24 |
| CC1(Oc2cc(C#N)ncn2)CC2(C1)O[C@@H]1CC[C@@H](c3cc(F)cc(F)c3)N1C2=O (stereo partly drawn) [Example 5.1, 6-(((5′S,7a′R)-5′-(3,5-difluorophenyl)-3-methyl-3′-oxotetrahydro-3′H-spiro[cyclobutane-1,2′-pyrrolo[2,1-b]oxazol]-3-yl)oxy)pyrimidine-4-carbonitrile] | 57 |

Reference: patent US20250154173A1 (Merck Sharp & Dohme LLC, priority 2023, published 2025)
